# Experimental data: patent publication US5679712A, “Substituted benzoylguanidines, process for their preparation, their use as a pharmaceutical or diagnostic, and pharmaceutical containing them” (priority 1995, dated 1997)
# Where a name gives a salt, the structure may show the parent alone.
# Tests used:
# [1] = biological target: T1, Na^+ /H^+ exchanger of rabbit erythrocytes (Oryctolagus cuniculus, UniProt P23791); assay: Inhibition of the Na^+/H^+ exchanger of rabbit erythrocytes (amiloride-sensitive sodium influx, flame photometry); format: cell-based, rabbit (New Zealand White); details: cholesterol-fed rabbits, hyperosmolar salt/sucrose medium, pH 7.4, 37° C.
# T1 construct: endogenous in cells; host or cells: erythrocytes (whole blood samples) of New Zealand White rabbits (Ivanovas) fed 2% cholesterol
# T1 sequence (P23791 whole entry): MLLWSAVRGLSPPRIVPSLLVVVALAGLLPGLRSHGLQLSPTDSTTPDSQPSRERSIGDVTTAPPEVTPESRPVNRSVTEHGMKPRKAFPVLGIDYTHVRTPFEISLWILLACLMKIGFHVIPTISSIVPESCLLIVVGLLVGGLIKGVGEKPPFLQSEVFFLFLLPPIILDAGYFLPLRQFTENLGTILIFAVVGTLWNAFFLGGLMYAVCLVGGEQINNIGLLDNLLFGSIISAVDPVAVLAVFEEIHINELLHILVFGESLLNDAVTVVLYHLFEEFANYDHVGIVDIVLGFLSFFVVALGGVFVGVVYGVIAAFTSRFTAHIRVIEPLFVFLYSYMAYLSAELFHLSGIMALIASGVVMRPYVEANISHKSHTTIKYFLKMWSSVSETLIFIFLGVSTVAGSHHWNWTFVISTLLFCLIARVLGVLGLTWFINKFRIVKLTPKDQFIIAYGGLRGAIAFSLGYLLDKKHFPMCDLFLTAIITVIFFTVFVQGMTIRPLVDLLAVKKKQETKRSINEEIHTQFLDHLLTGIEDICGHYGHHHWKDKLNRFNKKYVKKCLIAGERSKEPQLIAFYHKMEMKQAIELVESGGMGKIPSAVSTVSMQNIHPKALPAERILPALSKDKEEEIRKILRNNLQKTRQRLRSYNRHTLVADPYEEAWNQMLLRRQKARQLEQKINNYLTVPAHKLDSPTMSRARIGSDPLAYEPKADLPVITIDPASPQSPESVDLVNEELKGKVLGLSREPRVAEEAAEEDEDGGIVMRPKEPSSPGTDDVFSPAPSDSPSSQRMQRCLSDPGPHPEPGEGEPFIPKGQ
# From the text: Inhibition of the Na^+ /H^+ exchanger of rabbit erythrocytes
# New Zealand White rabbits (Ivanovas) were given a standard diet containing 2% cholesterol for six weeks in order to activate Na^+ /H^+ exchange and thus to be able to determine, by flame photometry, the influx of Na^+ into the erythrocytes by way of Na^+ /H^+ exchange. The blood was removed from the aural arteries and rendered incoagulable with 25 IU of potassium heparin. A portion of each sample was used to determine the hematocrit in duplicate by centrifugation. Aliquots of 100 μl in each case were used for measuring the initial content of Na^+ in the erythrocytes.
# In order to determine the amiloride-sensitive sodium influx, 100 μl of each blood sample were in each case incubated in 5 ml of a hyperosmolar salt/sucrose medium (mmol/l: 140 NaCl, 3 KCl, 150 sucrose, 0.1 ouabain, 20 tris-hydroxymethylaminomethane) at pH 7.4 and 37° C. After that, the erythrocytes were washed three times with ice-cold MgCl2 /ouabain solution (mmol/l: 112 MgCl2, 0.1 ouabain), and hemolyzed in 2.0 ml of distilled water. The intracellular content of sodium was determined by flame photometry.
# The net influx of Na^+ was calculated from the difference between the initial sodium values and the sodium content of the erythrocytes following incubation. The amiloride-inhibitable sodium influx was obtained from the difference in the sodium content of the erythrocytes following incubation with and without 3×10^-4 mol/l amiloride. The same procedure was used for the compounds according to the invention.
# rats' hearts = details: isolated rat hearts; cited from earlier work
SMILES,IC50 [1],"potency relative to amiloride, ventricular fibrillation model (rats' hearts)"
"CC(=O)c1cc(C(=O)N=C(N)N)ccc1O [Example 1, 3-Acetyl-4-hydroxybenzoylguanidine]",2 µM,–
"COc1ccc(C(=O)N=C(N)N)cc1C(C)=O [Example 2, 3-Acetyl-4-methoxybenzoylguanidine hydrochloride]",1 µM,–
"CC(=O)c1cc(C(=O)N=C(N)N)ccc1OC(C)C [Example 3, 3-Acetyl-4-isopropoxybenzoylguanidine hydrochloride]",1.1 µM,–
"CC(=O)c1cc(C(=O)N=C(N)N)ccc1OCc1ccccc1 [Example 4, 3-Acetyl-4-benzyloxybenzoylguanidine hydrochloride]",1.2 µM,–
CCN(c1nc(N)c(C(=O)NC(=N)N)nc1Cl)C(C)C [ethylisopropylamiloride],–,even more potent than amiloride itself
